Assay results from US12583851B2, “Heteroaryl-substituted pyrazine derivatives as pesticides” (Elanco Animal Health GmbH, priority 2019, dated 2026).

Columns and labels:
Type in all cases: in vivo
[1] = system: larvae of the banded cucumber beetle (Diabrotica balteata); test: Diabrotica balteata spray test; settings: 168 h, after 7 days, read-out: efficacy (seedling growth); for pest or weed control at 32 µg/disc, 100 g/ha: 100 g/ha (=32 μg/well); for pest or weed control at 6.4 µg/disc, 20 g/ha: 20 g/ha (=6.4 μg/well)
How it was run: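 Germinated wheat seedlings (5 per well, on agar) sprayed with compound in acetone/DMF with emulsifier-containing water, then infested with 10–20 Diabrotica balteata larvae. Efficacy (%) scored after 7 days from seedling growth: 100% = growth as untreated uninfested control, 0% = no seedlings grown.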

[2] = system: Rhipicephalus (Boophilus) microplus larvae (strain Parkhurst, resistant against synthetic pyrethroids); test: Rhipicephalus (Boophilus) microplus in-vitro contact test, larval cattle tick; settings: after 48 hours, read-out: efficacy (larvae dead or moribund); for pest or weed control at 5 µg/cm2, 500 g/ha: 5 μg/cm^2 (=500 g/ha); for pest or weed control at 1 µg/cm2, 100 g/ha: 1 μg/cm^2 (=100 g/ha)
How it was run: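 Acetone solutions were coated onto glass tube walls (900 ppm gives 5 μg/cm²); after drying, 20–50 pyrethroid-resistant Parkhurst larvae added and held at 27 °C, 85% RH. At 48 h, efficacy as % larvae dead or moribund, judged by loss of negative geotaxis.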

[3] = system: adult brown dog ticks (Rhipicephalus sanguineus); test: Rhipicephalus sanguineus in-vitro contact test, adult brown dog ticks; settings: 48 h, 5 μg/cm^2 (=500 g/ha), after 48 hours, read-out: efficacy (ticks dead or moribund)
How it was run: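 Acetone solution coated on glass tube inner walls (900 ppm, giving 5 μg/cm^2); after drying, 5–10 adult ticks added and kept 48 h at room temperature. Efficacy scored as percent dead or moribund, i.e., ticks unable to climb away on a 45–50 °C heating plate within 5 min.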

[4] = system: southern root-knot nematode (Meloidogyne incognita); test: Meloidogyne incognita test; settings: 20 ppm, after 14 days
Experimental: Meloidogyne incognita—Test
Solvent: 125.0 parts by weight of acetone
To produce a suitable preparation of active compound, 1 part by weight of active compound is mixed with the stated amount of solvent, and the concentrate is diluted with water to the desired concentration.
Vessels are filled with sand, a solution of the active ingredient, a suspension containing eggs and larvae of the southern root-knot nematode (Meloidogyne incognita) and salad seeds. The salad seeds germinate and the seedlings grow. Galls develop in the roots.
After 14 days the nematicidal activity is determined based on the percentage of gall formation. 100% means no galls were found and 0% means the number of galls found on the roots of the treated plants was equal to that in untreated control plants.

[5] = system: adult unfed cat fleas (Ctenocephalides felis); test: Ctenocephalides felis oral test; settings: 48 h, 100 ppm in citrated cattle blood, after 2 days
Experimental: Ctenocephalides felis—Oral Test
(§1) Solvent: dimethyl sulfoxide
To produce a suitable preparation of active compound, 10 mg of active compound are dissolved in 0.5 mL solvent, and the concentrate is diluted with citrated cattle blood to the desired concentration.
Approximately 20 adult unfed cat fleas (Ctenocephalides felis) are placed in a flea chamber whose top and bottom is covered with gauze. A chamber whose bottom is sealed with parafilm, is filled with the blood-compound solution and placed on top of the flea chamber, so that the fleas can suck the blood. The blood chamber is heated to 37° C. whereas the flea chamber is kept at room temperature.
After 2 days mortality in % is determined. 100% means all the fleas have been killed; 0% means none of the fleas have been killed.

[6] = system: adult mosquitoes Aedes aegypti strain MONHEIM; test: Aedes aegypti test (AEDSAE surface treatment & contact assay); settings: 24 hours after contact, read-out: mortality (efficacy); for mortality at 20 mg/m2: surface concentration 20 mg/m^2, 30 minutes exposure
Experimental: Aedes aegypti Test (AEDSAE Surface Treatment & Contact Assay)
(§2) Solvent: Aceton+2000 ppm rapeseed oil methyl ester (RME)
(§3) In order to produce a sufficient, active ingredient containing solution it is necessary to solve the test compound in the solvent-mix (acetone at 2 mg/ml/RME 2000 ppm). This solution is pipetted onto a glazed tile and after evaporation of the acetone, adult mosquitoes of the species Aedes aegypti strain MONHEIM are placed onto the dried surface. The exposure time is 30 minutes.
(§4) Mortality in percent (%) is determined 24 hours after contact of the insects to the treated surface. 100% mortality means that all tested insects are dead, whereas 0% means that no insect died.

[7] = system: larvae of the southern green stink bug (Nezara viridula); test: Nezara viridula spray test; settings: 96 h, 100 g/ha, barley plants, after 4 days
Experimental: Nezara viridula—Spray Test
(§5) Solvent: 78.0 parts by weight of acetone • • 1.5 parts by weight of dimethylformamide
(§6) Emulsifier: alkylarylpolyglycol ether
(§7) To produce a suitable preparation of active compound, 1 part by weight of active compound is mixed with the stated amount of solvent, and the concentrate is diluted with water, containing an emulsifier concentration of 1000 ppm, to the desired concentration. Further test concentrations are prepared by dilution with emulsifier containing water.
Barley plants (Hordeum vulgare) infested with larvae of the southern green stink bug (Nezara viridula) are sprayed with a test solution containing the desired concentration of the active ingredient.
After 4 days mortality in % is determined. 100% means all the stink bugs have been killed; 0% means none of the stink bugs have been killed.

[8] = system: adult engorged female ticks (Rhipicephalus microplus); test: Rhipicephalus (Boophilus) microplus injection test; settings: 168 h, 4 μg/animal, egg deposition after 7 days, read-out: efficacy (infertile eggs)
Experimental: Rhipicephalus (Boophilus) microplus—Injection Test
as §1
To produce a suitable preparation of active compound, 10 mg of active compound are dissolved in 0.5 mL solvent, and the concentrate is diluted with solvent to the desired concentration.
Five adult engorged female ticks (Rhipicephalus microplus) are injected with 1 μL compound solution into the abdomen. The ticks are transferred into replica plates and incubated in a climate chamber.
After 7 days egg deposition of fertile eggs is monitored. Eggs where fertility is not visible are stored in a climate chamber till hatching after about 42 days. An efficacy of 100% means all eggs are infertile; 0% means all eggs are fertile.

[9] = system: adult mosquitoes Anopheles funestus strain FUMOZ-R; test: Anopheles funestus test (ANPHFU surface treatment & contact assay); settings: 24 hours after contact, read-out: mortality (efficacy); for mortality at 20 mg/m2: surface concentration 20 mg/m^2, 30 minutes exposure
Experimental: Anopheles funestus Test (ANPHFU Surface Treatment & Contact Assay)
as §2
as §3, with “Anopheles funestus” for “Aedes aegypti”, “FUMOZ-R (Hunt et al., Med. Vet. Entomol. 2005 Sep. 19(3): 271-275)” for “MONHEIM”
as §4

[10] = system: fall armyworm larvae (Spodoptera frugiperda); test: Spodoptera frugiperda spray test; settings: 168 h, maize leaf sections, after 7 days
How it was run: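 Compound dissolved in acetone/dimethylformamide, diluted in water containing 1000 ppm alkylarylpolyglycol ether emulsifier and sprayed onto maize leaf sections. Dried sections were infested with larvae; % mortality scored after 7 days (100% = all caterpillars killed, 0% = none).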

[11] = system: brown planthopper (Nilaparvata lugens); test: Nilaparvata lugens spray test; settings: 96 h, 500 g/ha, rice plants, after 4 days
Experimental: Nilaparvata lugens—Spray Test
as §5, §6
as §7, with “solvents” for “solvent,”, “and” for “and the concentrate”
Rice plants (Oryza sativa) are sprayed with a preparation of the active ingredient of the desired concentration and the plants are infested with the brown planthopper (Nilaparvata lugens).
After 4 days mortality in % is determined. 100% means all planthoppers have been killed and 0% means none of the planthoppers have been killed.

[12] = system: adult cat fleas (Ctenocephalides felis); test: Ctenocephalides felis in-vitro contact test, adult cat flea; settings: after 48 hours, read-out: efficacy (fleas dead or moribund); for pest or weed control at 1 µg/cm2, 100 g/ha: 1 μg/cm^2 (=100 g/ha); for pest or weed control at 5 µg/cm2, 500 g/ha: 5 μg/cm^2 (=500 g/ha)
How it was run: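 Acetone solution coated onto glass tube walls; 900 ppm gives 5 μg/cm². Once dry, 5–10 adult fleas per tube held at room temperature for 48 h. Efficacy (%) is the share of fleas dead or moribund, i.e. unable to climb away on a 45–50° C heating plate.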

[13] = system: adult flies Musca domestica strain WHO-N; test: Musca domestica test (MUSCDO surface treatment & contact assay); settings: surface concentration 20 mg/m^2, 30 minutes exposure, 24 hours after contact, read-out: mortality (efficacy)
Experimental: Musca domestica Test (MUSCDO Surface Treatment & Contact Assay)
as §2
as §3, with “flies” for “mosquitoes”, “Musca domestica” for “Aedes aegypti”, “WHO-N” for “MONHEIM”
as §4

[14] = system: green peach aphid (Myzus persicae); test: Myzus persicae spray test; settings: foliar, 120 h, Chinese cabbage leaf disks, after 5 days
Experimental: Myzus persicae—Spray Test
Solvent: 78.0 parts by weight acetone • 1.5 parts by weight dimethylformamide
as §6
as §7, with “solvents” for “solvent,”, “and” for “and the concentrate”
Chinese cabbage (Brassica pekinensis) leaf disks infected with all instars of the green peach aphid (Myzus persicae), are sprayed with a preparation of the active ingredient of the desired concentration.
After 5 days mortality in % is determined. 100% means all aphids have been killed and 0% means none of the aphids have been killed.

[15] = surface concentration 4 mg/m^2, 30 minutes exposure

Row | SMILES | pest or weed control at 32 µg/disc, 100 g/ha [1] [%] | pest or weed control at 5 µg/cm2, 500 g/ha [2] [%] | pest or weed control at 5 µg/cm2, 500 g/ha [3] [%] | nematicidal activity (based on gall formation) [4] [%] | mortality at 100 ppm [5] [%] | mortality at 4 mg/m2 [6, 15] [%] | mortality at 20 mg/m2 [6] [%] | pest or weed control at 1 µg/cm2, 100 g/ha [2] [%] | mortality at 100 g/ha [7] [%] | pest or weed control at 0.004 mg [8] [%] | mortality at 4 mg/m2 [9, 15] [%] | mortality at 20 mg/m2 [9] [%] | mortality at 100 g/ha [10] [%] | pest or weed control at 6.4 µg/disc, 20 g/ha [1] [%] | mortality at 500 g/ha [11] [%] | pest or weed control at 1 µg/cm2, 100 g/ha [12] [%] | pest or weed control at 5 µg/cm2, 500 g/ha [12] [%] | mortality at 20 mg/m2 [13] [%] | mortality at 100 g/ha [14] [%]
1 | CC(NC(=O)c1cc(Cl)cc(Br)c1)c1nccnc1-c1nccs1 (racemic) [Example I-54, (rac)-3-Bromo-5-chloro-N-{1-[3-(1,3-thiazol-2-yl)pyrazin-2-yl]ethyl}benzamide] | 100 | 90 | 80 | 90 |  |  |  |  |  |  |  |  |  |  |  |  |  |  | 
2 | CC(NC(=O)c1cc(Br)cc(C#N)c1)c1nccnc1-c1nccs1 (racemic) [Example I-55, (rac)-3-Bromo-5-cyano-N-{1-[3-(1,3-thiazol-2-yl)pyrazin-2-yl]ethyl}benzamide] |  |  |  | 100 | 100 |  |  |  |  |  |  |  |  |  |  |  |  |  | 
3 | CC(NC(=O)c1cncc(C(F)(F)F)c1)c1nccnc1-c1ncccn1 (racemic) [Example I-9, (rac)-N-(1-(3-(Pyrimidin-2-yl)pyrazin-2-yl)ethyl)-5-(trifluoromethyl)nicotinamide] |  | 100 | 80 |  | 80 | 80 to 100 | 80 to 100 | 100 | 90 | 100 | 80 to 100 | 80 to 100 |  |  |  |  |  |  | 
4 | CC(NC(=O)c1cc(Br)cc(OC(F)(F)F)c1)c1nccnc1-c1ccccn1 (stereo not drawn) [Example I-17] | 100 | 90 |  | 90 | 100 |  |  | 80 |  | 100 |  |  | 83 | 100 |  |  |  |  | 
5 | CC(NC(=O)c1cc(C(F)(F)F)cc(C(F)(F)F)c1)c1nccnc1-c1ncc(C(=O)N(CC2CC2)C(C)C)s1 (racemic) [Example I-63, (rac)-2-(3-{1-[3,5-Bis(trifluoromethyl)benzamido]ethyl}pyrazin-2-yl)-N-(cyclopropylmethyl)-N-(propan-2-yl)-1,3-thiazole-5-carboxamide] | 100 |  |  | 90 |  |  |  |  |  | 100 |  |  | 100 | 100 |  |  |  |  | 
6 | CCN(C)C(=O)c1cnc(-c2nccnc2[C@H](C)NC(=O)c2cc(C(F)(F)F)cc(C(F)(F)F)c2)s1 [Example I-85, 2-(3-{(1S)-1-[3,5-bis(trifluoromethyl)benzamido]ethyl}pyrazin-2-yl)-N-ethyl-N-methyl-1,3-thiazole-5-carboxamide] | 100 | 100 | 100 |  |  |  | 80 to 100 | 100 |  |  |  | 80 to 100 | 100 | 100 | 100 | 100 | 100 | 80 to 100 | 90
7 | CC(NC(=O)c1cc(C(F)(F)F)cc(C(F)(F)F)c1)c1nccnc1-c1ncc(C#N)s1 (racemic) [Example I-82, (rac)-N-{1-[3-(5-Cyano-1,3-thiazol-2-yl)pyrazin-2-yl]ethyl}-3,5-bis(trifluoromethyl)benzamide] | 100 | 100 |  | 100 |  |  |  | 100 |  |  |  |  |  |  |  | 100 | 100 |  | 
